Data taken from patent US8362031B2, “Lonidamine analogues and treatment of polycystic kidney disease” (University of Kansas, priority 2004, dated 2013).
Entries after “also recorded” stand apart in the source; their conditions may differ.

system: rats; assay: Toxicology: organs sectioned and examined after dosing; type: in vivo; details: 25 mg/kg, two animals examined, findings per animal
Description: In at least two of the animals in each group, the pancreas, right kidney and part of the liver, heart, spleen, and lung were removed and evaluated for toxic effects.
The toxicology of animals receiving some of the compounds of the present invention IP and/or oral was examined. At the time of sacrifice samples of liver, pancreas, heart, lung, spleen and kidney were removed, visually inspected, and immersion fixed in Bouin's solution for a minimum of 48 hours. All organs were then sectioned and examined for evidence of necrosis, inflammation, hemorrhage, and possible tumors. The major veins in each tissue were also examined for distention, especially in the liver and pancreas, and any other abnormalities are compared to known histopathological states. In addition to the above, the heart was examined for evidence of fibrosis in the muscular walls, and to compare the thickness of the ventricular walls. The pancreas was examined mainly for calcium deposits, while the lung was checked for signs of any exudates or hemorrhage, especially in the alveolar spaces. Finally, the kidney was examined mainly for microscopic hemorrhages, tubular necrosis or alterations in the glomeruli in the cortex.
In this example, the effects of RC-MC-30 were compared with those of lonidamine in sexually mature rats. As discussed above, each of the rats (8 total) received a single injection and were sacrificed five days after injection and examined.

| Compound | Toxicology: liver, lung, pancreas, spleen, heart and kidney (histology) |
| --- | --- |
| O=C(O)c1nn(Cc2ccc(Cl)cc2Cl)c2cc(F)ccc12 [JWS-1-162, 1-(2,4-dichlorobenzyl)-6-fluoro-1H-indazole-3-carboxylic acid] | liver, lung, pancreas, spleen, heart and kidney all appeared within normal limits |

same assay, conditions: 25 mg/kg, two animals examined, findings per animal; listed as JSW-1-160

| Compound | Toxicology: liver, lung, pancreas, spleen, heart and kidney (histology) |
| --- | --- |
| NNC(=O)c1nn(Cc2ccc(Cl)cc2Cl)c2cc(F)ccc12 [JWS-1-160, 1-(2,4-dichlorobenzyl)-6-fluoro-1H-indazole-3-carboxylic acid hydrazide] | The kidney does have scattered, small patches of tubular necrosis in the inner cortex; also recorded: The liver had several distended veins, but no other abnormalities were noted; also recorded: liver, lung, pancreas, spleen, heart and kidney all appeared within normal limits |

same assay, conditions: 200 mg/kg, two animals examined, findings per animal; listed as JSW-1-160

| Compound | Toxicology: liver, lung, pancreas, spleen, heart and kidney (histology) |
| --- | --- |
| NNC(=O)c1nn(Cc2ccc(Cl)cc2Cl)c2cc(F)ccc12 [JWS-1-160, 1-(2,4-dichlorobenzyl)-6-fluoro-1H-indazole-3-carboxylic acid hydrazide] | The kidney did have scattered, small patches of tubular necrosis in the inner cortex; also recorded: liver, lung, pancreas, spleen, heart and kidney all appeared within normal limits |

same assay, conditions: 200 mg/kg, two animals examined, findings per animal; listed as JSW-1-162

| Compound | Toxicology: liver, lung, pancreas, spleen, heart and kidney (histology) |
| --- | --- |
| O=C(O)c1nn(Cc2ccc(Cl)cc2Cl)c2cc(F)ccc12 [JWS-1-162, 1-(2,4-dichlorobenzyl)-6-fluoro-1H-indazole-3-carboxylic acid] | The lung had scattered hemorrhagic patches surrounding many of the small bronchioles; also recorded: The lung had moderate regions showing thickening of the alveolar walls, with a clear exudates slightly stained by eosin filling the alveoli |

system: Male Long Evans rats; assay: In vivo antispermatogenic testing in Long Evans rats; details: 25 mg/kg single i.p. injection; […]

| Compound | Mortality (25 mg/kg) |
| --- | --- |
| NNC(=O)c1nn(Cc2ccc(Cl)cc2Cl)c2cc(F)ccc12 [JWS-1-160, 1-(2,4-dichlorobenzyl)-6-fluoro-1H-indazole-3-carboxylic acid hydrazide] | 0/5 |
| NNC(=O)c1nn(Cc2ccc(F)cc2F)c2cc(C(F)(F)F)ccc12 [JWS-1-274, 1-(2,4-difluorobenzyl)-6-trifluoromethyl-1H-indazole-3-carboxylic acid hydrazide] | 0/5 |
| NNC(=O)c1nn(Cc2ccc(Cl)cc2Cl)c2ncccc12 [RC-MC-60, 1-(2,4-dichlorobenzyl)-1H-pyrazolo[3,4-b]pyridine-3-carboxylic acid hydrazide] | 0/5 |
| NNC(=O)c1nn(Cc2ccc(Cl)cc2Cl)c2cc(C(F)(F)F)ccc12 [RC-MC-101, 1-(2,4-dichlorobenzyl)-6-trifluoromethyl-1H-indazole-3-carboxylic acid hydrazide] | 0/5 |

same assay, conditions: 25 mg/kg single i.p. injection; animals responding out of animals surviving; five days following injection

| Compound | Response 25 mg/kg |
| --- | --- |
| NNC(=O)c1nn(Cc2ccc(Cl)cc2Cl)c2cc(F)ccc12 [JWS-1-160, 1-(2,4-dichlorobenzyl)-6-fluoro-1H-indazole-3-carboxylic acid hydrazide] | 3/5 |
| NNC(=O)c1nn(Cc2ccc(F)cc2F)c2cc(C(F)(F)F)ccc12 [JWS-1-274, 1-(2,4-difluorobenzyl)-6-trifluoromethyl-1H-indazole-3-carboxylic acid hydrazide] | 0/5 |
| NNC(=O)c1nn(Cc2ccc(Cl)cc2Cl)c2ncccc12 [RC-MC-60, 1-(2,4-dichlorobenzyl)-1H-pyrazolo[3,4-b]pyridine-3-carboxylic acid hydrazide] | 0/5 |
| NNC(=O)c1nn(Cc2ccc(Cl)cc2Cl)c2cc(C(F)(F)F)ccc12 [RC-MC-101, 1-(2,4-dichlorobenzyl)-6-trifluoromethyl-1H-indazole-3-carboxylic acid hydrazide] | 0/5 |

same assay, conditions: 200 mg/kg single i.p. injection; […]

| Compound | Mortality (200 mg/kg) |
| --- | --- |
| NNC(=O)c1nn(Cc2ccc(Cl)cc2Cl)c2cc(F)ccc12 [JWS-1-160, 1-(2,4-dichlorobenzyl)-6-fluoro-1H-indazole-3-carboxylic acid hydrazide] | 2/5 |
| NNC(=O)c1nn(Cc2ccc(F)cc2F)c2cc(C(F)(F)F)ccc12 [JWS-1-274, 1-(2,4-difluorobenzyl)-6-trifluoromethyl-1H-indazole-3-carboxylic acid hydrazide] | 0/5 |
| NNC(=O)c1nn(Cc2ccc(Cl)cc2Cl)c2ncccc12 [RC-MC-60, 1-(2,4-dichlorobenzyl)-1H-pyrazolo[3,4-b]pyridine-3-carboxylic acid hydrazide] | 0/5 |
| NNC(=O)c1nn(Cc2ccc(Cl)cc2Cl)c2cc(C(F)(F)F)ccc12 [RC-MC-101, 1-(2,4-dichlorobenzyl)-6-trifluoromethyl-1H-indazole-3-carboxylic acid hydrazide] | 0/5 |

same assay, conditions: 200 mg/kg single i.p. injection; animals responding out of animals surviving; five days following injection

| Compound | Response 200 mg/kg |
| --- | --- |
| NNC(=O)c1nn(Cc2ccc(Cl)cc2Cl)c2cc(F)ccc12 [JWS-1-160, 1-(2,4-dichlorobenzyl)-6-fluoro-1H-indazole-3-carboxylic acid hydrazide] | 3/3 |
| NNC(=O)c1nn(Cc2ccc(F)cc2F)c2cc(C(F)(F)F)ccc12 [JWS-1-274, 1-(2,4-difluorobenzyl)-6-trifluoromethyl-1H-indazole-3-carboxylic acid hydrazide] | 0/5 |
| NNC(=O)c1nn(Cc2ccc(Cl)cc2Cl)c2ncccc12 [RC-MC-60, 1-(2,4-dichlorobenzyl)-1H-pyrazolo[3,4-b]pyridine-3-carboxylic acid hydrazide] | 0/5 |
| NNC(=O)c1nn(Cc2ccc(Cl)cc2Cl)c2cc(C(F)(F)F)ccc12 [RC-MC-101, 1-(2,4-dichlorobenzyl)-6-trifluoromethyl-1H-indazole-3-carboxylic acid hydrazide] | 0/5 |

system: Salmonella Typhimurium TA 100; assay: Ames test for mutagenicity (plate assay, colony count); details: (+)S9 mix, 0.1 mg/pl., 48 hours at 37° C.

| Compound | Ames test (+)S9 0.1 mg/pl. |
| --- | --- |
| NNC(=O)c1nn(Cc2ccc(Cl)cc2Cl)c2cc(F)ccc12 [JWS-1-160, 1-(2,4-dichlorobenzyl)-6-fluoro-1H-indazole-3-carboxylic acid hydrazide] | Pass |
| O=C(O)c1nn(Cc2ccc(Cl)cc2Cl)c2cc(F)ccc12 [JWS-1-162, 1-(2,4-dichlorobenzyl)-6-fluoro-1H-indazole-3-carboxylic acid] | Pass |
| NNC(=O)c1nn(Cc2ccc(F)cc2F)c2cc(C(F)(F)F)ccc12 [JWS-1-274, 1-(2,4-difluorobenzyl)-6-trifluoromethyl-1H-indazole-3-carboxylic acid hydrazide] | Pass |
| NNC(=O)c1nn(Cc2ccc(Cl)cc2Cl)c2ncccc12 [RC-MC-60, 1-(2,4-dichlorobenzyl)-1H-pyrazolo[3,4-b]pyridine-3-carboxylic acid hydrazide] | Pass |
| NNC(=O)c1nn(Cc2ccc(Cl)cc2Cl)c2cc(C(F)(F)F)ccc12 [RC-MC-101, 1-(2,4-dichlorobenzyl)-6-trifluoromethyl-1H-indazole-3-carboxylic acid hydrazide] | Pass |

same assay, conditions: (+)S9 mix, 1 mg/pl., 48 hours at 37° C.

| Compound | Ames test (+)S9 1 mg/pl. |
| --- | --- |
| NNC(=O)c1nn(Cc2ccc(Cl)cc2Cl)c2cc(F)ccc12 [JWS-1-160, 1-(2,4-dichlorobenzyl)-6-fluoro-1H-indazole-3-carboxylic acid hydrazide] | Pass |
| O=C(O)c1nn(Cc2ccc(Cl)cc2Cl)c2cc(F)ccc12 [JWS-1-162, 1-(2,4-dichlorobenzyl)-6-fluoro-1H-indazole-3-carboxylic acid] | Pass |
| NNC(=O)c1nn(Cc2ccc(F)cc2F)c2cc(C(F)(F)F)ccc12 [JWS-1-274, 1-(2,4-difluorobenzyl)-6-trifluoromethyl-1H-indazole-3-carboxylic acid hydrazide] | Pass |
| NNC(=O)c1nn(Cc2ccc(Cl)cc2Cl)c2ncccc12 [RC-MC-60, 1-(2,4-dichlorobenzyl)-1H-pyrazolo[3,4-b]pyridine-3-carboxylic acid hydrazide] | Pass |
| NNC(=O)c1nn(Cc2ccc(Cl)cc2Cl)c2cc(C(F)(F)F)ccc12 [RC-MC-101, 1-(2,4-dichlorobenzyl)-6-trifluoromethyl-1H-indazole-3-carboxylic acid hydrazide] | Pass |

same assay, conditions: (+)S9 mix, 10 mg/pl., 48 hours at 37° C.

| Compound | Ames test (+)S9 10 mg/pl. |
| --- | --- |
| NNC(=O)c1nn(Cc2ccc(Cl)cc2Cl)c2cc(F)ccc12 [JWS-1-160, 1-(2,4-dichlorobenzyl)-6-fluoro-1H-indazole-3-carboxylic acid hydrazide] | Pass |
| O=C(O)c1nn(Cc2ccc(Cl)cc2Cl)c2cc(F)ccc12 [JWS-1-162, 1-(2,4-dichlorobenzyl)-6-fluoro-1H-indazole-3-carboxylic acid] | Pass |
| NNC(=O)c1nn(Cc2ccc(F)cc2F)c2cc(C(F)(F)F)ccc12 [JWS-1-274, 1-(2,4-difluorobenzyl)-6-trifluoromethyl-1H-indazole-3-carboxylic acid hydrazide] | Pass |
| NNC(=O)c1nn(Cc2ccc(Cl)cc2Cl)c2ncccc12 [RC-MC-60, 1-(2,4-dichlorobenzyl)-1H-pyrazolo[3,4-b]pyridine-3-carboxylic acid hydrazide] | Pass |
| NNC(=O)c1nn(Cc2ccc(Cl)cc2Cl)c2cc(C(F)(F)F)ccc12 [RC-MC-101, 1-(2,4-dichlorobenzyl)-6-trifluoromethyl-1H-indazole-3-carboxylic acid hydrazide] | Pass |

same assay, conditions: (−)S9 mix, 0.1 mg/pl., 48 hours at 37° C.

| Compound | Ames test (−)S9 0.1 mg/pl. |
| --- | --- |
| NNC(=O)c1nn(Cc2ccc(Cl)cc2Cl)c2cc(F)ccc12 [JWS-1-160, 1-(2,4-dichlorobenzyl)-6-fluoro-1H-indazole-3-carboxylic acid hydrazide] | Pass |
| O=C(O)c1nn(Cc2ccc(Cl)cc2Cl)c2cc(F)ccc12 [JWS-1-162, 1-(2,4-dichlorobenzyl)-6-fluoro-1H-indazole-3-carboxylic acid] | Pass |
| NNC(=O)c1nn(Cc2ccc(F)cc2F)c2cc(C(F)(F)F)ccc12 [JWS-1-274, 1-(2,4-difluorobenzyl)-6-trifluoromethyl-1H-indazole-3-carboxylic acid hydrazide] | Pass |
| NNC(=O)c1nn(Cc2ccc(Cl)cc2Cl)c2ncccc12 [RC-MC-60, 1-(2,4-dichlorobenzyl)-1H-pyrazolo[3,4-b]pyridine-3-carboxylic acid hydrazide] | Pass |
| NNC(=O)c1nn(Cc2ccc(Cl)cc2Cl)c2cc(C(F)(F)F)ccc12 [RC-MC-101, 1-(2,4-dichlorobenzyl)-6-trifluoromethyl-1H-indazole-3-carboxylic acid hydrazide] | Pass |

same assay, conditions: (−)S9 mix, 1 mg/pl., 48 hours at 37° C.

| Compound | Ames test (−)S9 1 mg/pl. |
| --- | --- |
| NNC(=O)c1nn(Cc2ccc(Cl)cc2Cl)c2cc(F)ccc12 [JWS-1-160, 1-(2,4-dichlorobenzyl)-6-fluoro-1H-indazole-3-carboxylic acid hydrazide] | Pass |
| O=C(O)c1nn(Cc2ccc(Cl)cc2Cl)c2cc(F)ccc12 [JWS-1-162, 1-(2,4-dichlorobenzyl)-6-fluoro-1H-indazole-3-carboxylic acid] | Pass |
| NNC(=O)c1nn(Cc2ccc(F)cc2F)c2cc(C(F)(F)F)ccc12 [JWS-1-274, 1-(2,4-difluorobenzyl)-6-trifluoromethyl-1H-indazole-3-carboxylic acid hydrazide] | Pass |
| NNC(=O)c1nn(Cc2ccc(Cl)cc2Cl)c2ncccc12 [RC-MC-60, 1-(2,4-dichlorobenzyl)-1H-pyrazolo[3,4-b]pyridine-3-carboxylic acid hydrazide] | Pass |
| NNC(=O)c1nn(Cc2ccc(Cl)cc2Cl)c2cc(C(F)(F)F)ccc12 [RC-MC-101, 1-(2,4-dichlorobenzyl)-6-trifluoromethyl-1H-indazole-3-carboxylic acid hydrazide] | Pass |

same assay, conditions: (−)S9 mix, 10 mg/pl., 48 hours at 37° C.

| Compound | Ames test (−)S9 10 mg/pl. |
| --- | --- |
| NNC(=O)c1nn(Cc2ccc(Cl)cc2Cl)c2cc(F)ccc12 [JWS-1-160, 1-(2,4-dichlorobenzyl)-6-fluoro-1H-indazole-3-carboxylic acid hydrazide] | Pass |
| O=C(O)c1nn(Cc2ccc(Cl)cc2Cl)c2cc(F)ccc12 [JWS-1-162, 1-(2,4-dichlorobenzyl)-6-fluoro-1H-indazole-3-carboxylic acid] | Pass |
| NNC(=O)c1nn(Cc2ccc(F)cc2F)c2cc(C(F)(F)F)ccc12 [JWS-1-274, 1-(2,4-difluorobenzyl)-6-trifluoromethyl-1H-indazole-3-carboxylic acid hydrazide] | Pass |
| NNC(=O)c1nn(Cc2ccc(Cl)cc2Cl)c2ncccc12 [RC-MC-60, 1-(2,4-dichlorobenzyl)-1H-pyrazolo[3,4-b]pyridine-3-carboxylic acid hydrazide] | Pass |
| NNC(=O)c1nn(Cc2ccc(Cl)cc2Cl)c2cc(C(F)(F)F)ccc12 [RC-MC-101, 1-(2,4-dichlorobenzyl)-6-trifluoromethyl-1H-indazole-3-carboxylic acid hydrazide] | Pass |
